Source: patent US10428104B2, “Substituted nucleoside derivatives useful as anticancer agents” (Pfizer Inc., priority 2015, dated 2019)

Target: PRMT5/MEP50 protein complex (Homo sapiens (Human), UniProt O14744)
Assay: PRMT5 biochemical assay (3H-SAM methylation of H4(1-21) peptide, filter plate scintillation counting)
Details: PRMT5 enzyme inhibition; 10 nM PRMT5/MEP50 complex, 200 nM H4(1-21) peptide, 1 uM SAM, 25 minute incubation at room temperature
Experimental: Following dilution, 1 ul was added to an empty 96-well microtiter plate. PRMT5/MEP50 protein complex was combined with H4(1-21) peptide ([…]) in PRMT5 assay buffer (50 mM Tris pH 8.5, 50 mM NaCl, 5 mM MgCl2, 1 mM EDTA, 1 mM TCEP) and 44 ul was added to the microtiter plate containing compound. S-Adenosyl-L-methionine (SAM) was prepared by combining ^3H labelled SAM with unlabelled SAM in PRMT5 assay buffer such that the final SAM concentration was 10 uM and the specific activity was 0.2 uCi/ul. The reaction was initiated by adding 5 ul of SAM stock to the microtiter plate. The final reaction conditions were 10 nM PRMT5/MEP50 complex, 200 nM peptide and 1 uM SAM. Following a 25 minute incubation at room temperature, the reaction was stopped with the addition of 100 uL of 20% TCA. The 3H-peptide product was captured using a 96-well filter plate (MSIPN4B, Millipore) and washed 5 times with PBS buffer. Scintillation fluid (100 ul) was added to the dried filter plate and counted in a liquid scintillation counter. IC50 values were determined by fitting the data to the standard 4-parameter dose response equation using Pfizer proprietary software.
In the final construct PRMT5 ORF was under control of polyhedrin promoter (polH) while MEP50 ORF was under control of p10 promoter.
Viruses were generated using standard Bac-to-Bac viral generation protocols (Life Technologies) and amplified to high-titer passage two (P2) stocks. Protein over expression was conducted in exponentially growing Sf21 cells infected at 2×106 with P2 viral stock at MOI=1 of PRMT5-Mep50 dual construct virus and Mep50 construct virus at 1:1 ratio. The co-expression protocol was used to supplement additional Mep50 for FlagPRMT5-Mep50 heterodimer formation. Cells were harvested at 72 h post infection by centrifugation and frozen pellet was stored at −80° C.
FlagPRMT5-Mep50 complex was purified from cell lysate using Flag affinity chromatography. Cell were lyzed in 50 mM Tris 7.5, 200 mM NaCl, 10% glycerol, 0.25 mM TCEP supplemented with EDTA-free protease inhibitor cocktail (Roche). 1.5 ml of lysis buffer was added per 1 g of frozen pellet. The clarified lysate was obtained by centrifugation of cell lysate at 10,000 g for 1 h at 4 C. 5 ml of Anti-FLAG M2 Agarose (Sigma) […] was added to the clarified lysate to isolate FlagPRMT5-Mep50. Following batch binding for 3 h at 4 C, Flag resin bound to FlagPRMT5-Mep50 washed with 20 column volumes (CV) of 50 mM Tris 7.5, 200 mM NaCl, 10% glycerol, 0.25 mM TCEP followed by elution of FlagPRMT5-Mep50 complex using 3 CV of 50 mM Tris 7.5, 200 mM NaCl, 10% glycerol, 0.25 mM TCEP supplemented with 200 ug/ml of FLAG Peptide ([…]). […] Peak fractions containing FlagPRMT5-Mep50 complex were concentrated to 1.6 mg/ml, flash frozen in small aliquots using liquid nitrogen and stored at −80° C.

Chain of PRMT5/MEP50 protein complex (O14744 other isoform, or with tags, fused parts or gaps): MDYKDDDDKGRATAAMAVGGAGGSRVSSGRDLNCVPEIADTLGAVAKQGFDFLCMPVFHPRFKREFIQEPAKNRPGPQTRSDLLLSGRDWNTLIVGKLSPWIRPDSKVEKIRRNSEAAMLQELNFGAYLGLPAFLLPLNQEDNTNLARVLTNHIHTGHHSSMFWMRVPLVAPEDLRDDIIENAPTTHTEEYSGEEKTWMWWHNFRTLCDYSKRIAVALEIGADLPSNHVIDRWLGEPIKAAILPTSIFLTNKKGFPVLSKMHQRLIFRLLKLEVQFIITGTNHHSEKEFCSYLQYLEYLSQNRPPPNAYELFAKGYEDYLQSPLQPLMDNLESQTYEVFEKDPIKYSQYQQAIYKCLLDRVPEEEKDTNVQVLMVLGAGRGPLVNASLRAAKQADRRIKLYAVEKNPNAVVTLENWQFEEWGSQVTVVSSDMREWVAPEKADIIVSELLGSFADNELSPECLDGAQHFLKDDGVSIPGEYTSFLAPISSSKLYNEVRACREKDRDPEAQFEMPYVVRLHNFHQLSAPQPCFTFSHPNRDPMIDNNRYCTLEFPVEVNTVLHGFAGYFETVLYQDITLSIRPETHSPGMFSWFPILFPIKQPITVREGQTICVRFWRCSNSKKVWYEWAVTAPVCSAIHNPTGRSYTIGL
Chain of PRMT5/MEP50 protein complex (Q9BQA1 whole entry partner): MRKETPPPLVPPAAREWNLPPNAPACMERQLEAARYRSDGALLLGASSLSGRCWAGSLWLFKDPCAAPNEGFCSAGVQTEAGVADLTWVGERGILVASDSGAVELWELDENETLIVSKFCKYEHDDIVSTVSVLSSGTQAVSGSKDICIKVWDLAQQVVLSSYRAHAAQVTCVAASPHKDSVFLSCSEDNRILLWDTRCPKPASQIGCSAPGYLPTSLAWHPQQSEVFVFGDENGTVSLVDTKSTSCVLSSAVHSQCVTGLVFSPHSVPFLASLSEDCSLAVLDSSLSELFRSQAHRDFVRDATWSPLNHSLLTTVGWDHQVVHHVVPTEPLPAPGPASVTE

SMILES | IC50
Cc1ncnc2c1ccn2[C@@H]1O[C@@H](c2ccn(C)n2)[C@@H](O)[C@H]1O [Example 77, (2S,3S,4R,5R)-2-(1-methyl-1H-pyrazol-3-yl)-5-(4-methyl-7H-pyrrolo[2,3-d]pyrimidin-7-yl)tetrahydrofuran-3,4-diol] | 24.4 µM
CCOCc1cc([C@@H]2O[C@@H](n3ccc4c(C)ncnc43)[C@H](O)[C@@H]2O)[nH]n1 [Example 78, (2S,3S,4R,5R)-2-(3-(ethoxymethyl)-1H-pyrazol-5-yl)-5-(4-methyl-7H-pyrrolo[2,3-d]pyrimidin-7-yl)tetrahydrofuran-3,4-diol] | 51.1 µM
Cc1ncnc2c1ccn2[C@@H]1O[C@@H](C(O)CO)[C@@H](O)[C@H]1O (stereo partly drawn) [Example 79, (2S,3S,4R,5R)-2-(1,2-dihydroxyethyl)-5-(4-methyl-7H-pyrrolo[2,3-d]pyrimidin-7-yl)tetrahydrofuran-3,4-diol] | 5.23 µM
Cc1ncnc2c1ccn2[C@@H]1O[C@H]([C@H](O)c2ccccc2S(C)(=O)=O)[C@@H](O)[C@H]1O [Example 81] | 91.7 µM
Cc1ncnc2c1ccn2[C@@H]1O[C@@H]([C@H](C)O)[C@@H](O)[C@H]1O [Example 89, (2S,3S,4R,5R)-2-((S)-1-hydroxyethyl)-5-(4-methyl-7H-pyrrolo[2,3-d]pyrimidin-7-yl)tetrahydrofuran-3,4-diol] | 1.73 µM
Cc1ncnc2c1ccn2[C@@H]1O[C@@H](C(C)(C)O)[C@@H](O)[C@H]1O [Example 90, (2R,3S,4R,5R)-2-(2-hydroxypropan-2-yl)-5-(4-methyl-7H-pyrrolo[2,3-d]pyrimidin-7-yl)tetrahydrofuran-3,4-diol] | 3.24 µM
Cc1ncnc2c1ccn2[C@@H]1O[C@H](C(=O)c2ccc(F)c(F)c2)[C@@H](O)[C@H]1O [Example 91, (3,4-difluorophenyl)((2S,3S,4R,5R)-3,4-dihydroxy-5-(4-methyl-7H-pyrrolo[2,3-d]pyrimidin-7-yl)tetrahydrofuran-2-yl)methanone] | 0.355 µM
Cc1ncnc2c1ccn2[C@@H]1O[C@H]([C@@H](F)c2ccc(F)c(F)c2)[C@@H](O)[C@H]1O [Example 93, (2S,3S,4R,5R)-2-((S)-(3,4-difluorophenyl)fluoromethyl)-5-(4-methyl-7H-pyrrolo[2,3-d]pyrimidin-7-yl)tetrahydrofuran-3,4-diol] | 0.299 µM
Cc1ncnc2c1ccn2[C@@H]1O[C@H]([C@@H](N)c2ccc(F)c(F)c2)[C@@H](O)[C@H]1O [Example 95, (2R,3S,4R,5R)-2-((S)-amino(3,4-difluorophenyl)methyl)-5-(4-methyl-7H-pyrrolo[2,3-d]pyrimidin-7-yl)tetrahydrofuran-3,4-diol] | 0.15 µM
Nc1ncnc2c([C@@H]3O[C@H]([C@H](O)c4ccc(F)cc4)[C@@H](O)[C@H]3O)scc12 [Example 102, (2R,3R,4S,5R)-2-(4-aminothieno[3,4-d]pyrimidin-7-yl)-5-((R)-(4-fluorophenyl)(hydroxy)methyl)tetrahydrofuran-3,4-diol] | 0.304 µM
C[C@@](O)(c1ccc(F)c(F)c1)[C@H]1O[C@@H](n2ccc3c(N)ncnc32)[C@H](O)[C@@H]1O [Example 103, (2R,3R,4S,5S)-2-(4-amino-7H-pyrrolo[2,3-d]pyrimidin-7-yl)-5-((R)-1-(3,4-difluorophenyl)-1-hydroxyethyl)tetrahydrofuran-3,4-diol] | 0.002 µM
CN[C@H](c1ccc(F)c(F)c1)[C@H]1O[C@@H](n2ccc3c(C)ncnc32)[C@H](O)[C@@H]1O [Example 109, (2R,3S,4R,5R)-2-((R)-(3,4-difluorophenyl)(methylamino)methyl)-5-(4-methyl-7H-pyrrolo[2,3-d]pyrimidin-7-yl)tetrahydrofuran-3,4-diol] | 4.84 µM

Continued by falling IC50, values first:

IC50 | SMILES
0.147 µM | C[C@](O)(c1ccc(F)c(F)c1)[C@H]1O[C@@H](n2ccc3c(N)ncnc32)[C@H](O)[C@@H]1O [Example 104, (2R,3R,4S,5S)-2-(4-amino-7H-pyrrolo[2,3-d]pyrimidin-7-yl)-5-((S)-1-(3,4-difluorophenyl)-1-hydroxyethyl)tetrahydrofuran-3,4-diol]
0.09 µM | Cc1ncnc2c1ccn2[C@@H]1O[C@H](Cc2ccc(F)cc2)[C@@H](O)[C@H]1O [Example 100, (2R,3S,4R,5R)-2-(4-fluorobenzyl)-5-(4-methyl-7H-pyrrolo[2,3-d]pyrimidin-7-yl)tetrahydrofuran-3,4-diol]
0.087 µM | Cc1ncnc2c1ccn2[C@@H]1O[C@H]([C@H](O)c2cccc(=O)[nH]2)[C@@H](O)[C@H]1O [Example 113, 6-((R)-((2R,3S,4R,5R)-3,4-dihydroxy-5-(4-methyl-7H-pyrrolo[2,3-d]pyrimidin-7-yl)tetrahydrofuran-2-yl)(hydroxy)methyl)pyridin-2(1H)-one]
0.079 µM | C[C@](O)(c1ccc(Cl)c(F)c1)[C@H]1O[C@@H](n2ccc3c(N)ncnc32)[C@H](O)[C@@H]1O [Example 106, (2R,3R,4S,5S)-2-(4-amino-7H-pyrrolo[2,3-d]pyrimidin-7-yl)-5-((S)-1-(4-chloro-3-fluorophenyl)-1-hydroxyethyl)tetrahydrofuran-3,4-diol]
0.051 µM | O[C@@H]1[C@H](O)[C@@H]([C@H](O)c2ccc(F)cc2)O[C@H]1n1ccc2c(C(F)F)ncnc21 [Example 96, (2R,3R,4S,5R)-2-(4-(difluoromethyl)-7H-pyrrolo[2,3-d]pyrimidin-7-yl)-5-((R)-(4-fluorophenyl)(hydroxy)methyl)tetrahydrofuran-3,4-diol]
0.05 µM | OCc1ncnc2c1ccn2[C@@H]1O[C@H]([C@H](O)c2ccc(F)c(F)c2)[C@@H](O)[C@H]1O [Example 108, (2R,3S,4R,5R)-2-((R)-(3,4-difluorophenyl)(hydroxy)methyl)-5-(4-(hydroxymethyl)-7H-pyrrolo[2,3-d]pyrimidin-7-yl)tetrahydrofuran-3,4-diol]
0.032 µM | Nc1ncnc2c([C@@H]3O[C@H]([C@H](O)c4ccc(F)cc4)[C@@H](O)[C@H]3O)coc12 [Example 80, (2S,3R,4S,5R)-2-(4-aminofuro[3,2-d]pyrimidin-7-yl)-5-((R)-(4-fluorophenyl)(hydroxy)methyl)tetrahydrofuran-3,4-diol]
0.03 µM | O[C@@H]1[C@H](O)[C@@H]([C@H](O)c2ccc(F)c(F)c2)O[C@H]1n1ccc2c(C(F)F)ncnc21 [Example 97, (2R,3R,4S,5R)-2-(4-(difluoromethyl)-7H-pyrrolo[2,3-d]pyrimidin-7-yl)-5-((R)-(3,4-difluorophenyl)(hydroxy)methyl)tetrahydrofuran-3,4-diol]
0.03 µM | Nc1ncnc2c1c(F)cn2[C@@H]1O[C@H](Cc2ccc(F)cc2)[C@@H](O)[C@H]1O [Example 101, (2R,3R,4S,5R)-2-(4-amino-5-fluoro-7H-pyrrolo[2,3-d]pyrimidin-7-yl)-5-(4-fluorobenzyl)tetrahydrofuran-3,4-diol]
0.007 µM | O[C@@H]1[C@H](O)[C@@H]([C@H](O)c2ccc(F)c(F)c2)O[C@H]1n1ccc2c(CF)ncnc21 [Example 107, (2R,3S,4R,5R)-2-((R)-(3,4-difluorophenyl)(hydroxy)methyl)-5-(4-(fluoromethyl)-7H-pyrrolo[2,3-d]pyrimidin-7-yl)tetrahydrofuran-3,4-diol]
0.002 µM | C[C@@](O)(c1ccc(Cl)c(F)c1)[C@H]1O[C@@H](n2ccc3c(N)ncnc32)[C@H](O)[C@@H]1O [Example 105, (2R,3R,4S,5S)-2-(4-amino-7H-pyrrolo[2,3-d]pyrimidin-7-yl)-5-((R)-1-(4-chloro-3-fluorophenyl)-1-hydroxyethyl)tetrahydrofuran-3,4-diol]
